Reference: BindingDB's records for doi:10.1021/jm960495w (Hokkaido University, 1997)

Assay: Percentage inhibition of N-methyl-D-aspartic acid (NMDA) receptor produced by oocytes

CCC(N)[C@@H]1C[C@@]1(C(=O)N(CC)CC)c1ccccc1 (stereo partly drawn) [(1S,2R)-2-(1-Amino-propyl)-1-phenyl-cyclopropanecarboxylic acid diethylamide]
IC50: 51 µM
